Test results published in ChEMBL document CHEMBL5244245, “Medicinal chemistry insights into novel CDC25 inhibitors” (Eur J Med Chem, 2020).
Blank lines part the entries; values can stand above or below the compound they belong to.

Experiments:
[1] = Antitumor activity against human RPMI cells; assay type: functional, cell-based
[2] = target: T1, M-phase inducer phosphatase 3 (Homo sapiens, UniProt P30307); test: Inhibition of human CDC25C
T1 sequence (P30307 whole entry): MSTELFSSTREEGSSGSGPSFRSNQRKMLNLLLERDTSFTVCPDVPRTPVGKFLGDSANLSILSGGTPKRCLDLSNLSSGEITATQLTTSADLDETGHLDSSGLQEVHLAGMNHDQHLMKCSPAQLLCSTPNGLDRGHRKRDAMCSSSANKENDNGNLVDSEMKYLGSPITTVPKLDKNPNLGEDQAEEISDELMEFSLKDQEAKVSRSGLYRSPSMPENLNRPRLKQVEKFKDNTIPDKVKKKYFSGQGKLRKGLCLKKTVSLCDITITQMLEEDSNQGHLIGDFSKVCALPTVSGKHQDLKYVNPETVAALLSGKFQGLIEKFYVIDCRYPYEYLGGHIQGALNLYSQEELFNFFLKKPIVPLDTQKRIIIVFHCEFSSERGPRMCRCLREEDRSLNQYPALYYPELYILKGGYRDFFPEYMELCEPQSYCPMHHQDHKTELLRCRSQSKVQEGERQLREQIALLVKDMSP

[3] = target: T2, M-phase inducer phosphatase 1 (Homo sapiens, UniProt P30304); test: Inhibition of human CDC25A
T2 sequence (P30304 whole entry): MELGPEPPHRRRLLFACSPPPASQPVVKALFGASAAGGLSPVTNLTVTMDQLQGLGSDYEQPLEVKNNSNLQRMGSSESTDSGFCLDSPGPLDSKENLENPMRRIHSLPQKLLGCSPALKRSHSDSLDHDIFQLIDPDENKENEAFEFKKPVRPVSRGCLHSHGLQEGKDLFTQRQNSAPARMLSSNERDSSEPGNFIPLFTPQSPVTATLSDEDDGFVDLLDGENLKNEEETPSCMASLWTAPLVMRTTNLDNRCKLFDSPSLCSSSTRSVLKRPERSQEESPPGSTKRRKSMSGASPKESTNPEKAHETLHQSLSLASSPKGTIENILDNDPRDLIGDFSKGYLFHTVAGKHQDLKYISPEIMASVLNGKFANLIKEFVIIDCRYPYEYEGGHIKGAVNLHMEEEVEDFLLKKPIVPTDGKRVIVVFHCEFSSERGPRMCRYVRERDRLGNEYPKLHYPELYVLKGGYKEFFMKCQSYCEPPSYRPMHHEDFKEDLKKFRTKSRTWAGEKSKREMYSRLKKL

[4] = target: T3, M-phase inducer phosphatase 2 (Homo sapiens, UniProt P30305); test: Inhibition of human CDC25B
T3 sequence (P30305 whole entry): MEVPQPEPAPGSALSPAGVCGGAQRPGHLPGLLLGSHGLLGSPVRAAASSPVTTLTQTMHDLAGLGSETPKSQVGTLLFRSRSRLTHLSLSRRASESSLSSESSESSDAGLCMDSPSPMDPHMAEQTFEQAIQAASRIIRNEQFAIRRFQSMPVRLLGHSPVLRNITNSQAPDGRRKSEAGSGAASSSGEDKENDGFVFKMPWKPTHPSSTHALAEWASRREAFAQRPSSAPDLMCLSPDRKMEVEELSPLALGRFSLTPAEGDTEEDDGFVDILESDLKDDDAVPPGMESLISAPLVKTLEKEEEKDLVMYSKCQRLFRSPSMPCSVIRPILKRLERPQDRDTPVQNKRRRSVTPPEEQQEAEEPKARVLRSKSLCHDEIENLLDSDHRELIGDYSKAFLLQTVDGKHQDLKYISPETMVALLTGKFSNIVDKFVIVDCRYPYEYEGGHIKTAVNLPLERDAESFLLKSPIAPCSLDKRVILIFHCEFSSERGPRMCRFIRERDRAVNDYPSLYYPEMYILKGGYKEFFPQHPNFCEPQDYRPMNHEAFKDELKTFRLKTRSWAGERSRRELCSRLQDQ

[5] = target: T2, M-phase inducer phosphatase 1; test: Inhibition of CDC25A (unknown origin)
[6] = target: T1, M-phase inducer phosphatase 3; test: Inhibition of CDC25C (unknown origin)
[7] = target: T3, M-phase inducer phosphatase 2; test: Inhibition of CDC25B (unknown origin)
HeLa = test: Cytotoxicity against human HeLa cells assessed as inhibition of cell growth incubated for 48 hrs by MTT assay; assay type: functional, cell-based
[8] = target: T2, M-phase inducer phosphatase 1; test: Inhibition of CDC25A (unknown origin) using fluorescein diphosphate as substrate
[9] = target: T1, M-phase inducer phosphatase 3; test: Inhibition of recombinant N-terminal GST-tagged CDC25C (unknown origin) expressed in Escherichia coli BL21 (DE3) cells incubated for 2 hrs
[10] = target: T3, M-phase inducer phosphatase 2; test: Inhibition of recombinant N-terminal GST-tagged CDC25B (unknown origin) expressed in Escherichia coli BL21 (DE3) cells incubated for 2 hrs
[11] = target: T2, M-phase inducer phosphatase 1; test: Inhibition of recombinant N-terminal GST-tagged CDC25A (unknown origin) expressed in Escherichia coli BL21 (DE3) cells incubated for 2 hrs
HCT-116 = test: Antitumor activity against human HCT-116 cells; assay type: functional, cell-based
[12] = target: T3, M-phase inducer phosphatase 2; test: Inhibition of human recombinant CDC25B
[13] = target: T3, M-phase inducer phosphatase 2; test: Inhibition of recombinant CDC25B (unknown origin)
[14] = target: T1, M-phase inducer phosphatase 3; test: Inhibition of recombinant CDC25C (unknown origin)
[15] = target: T2, M-phase inducer phosphatase 1; test: Inhibition of recombinant CDC25A (unknown origin)
[16] = target: T3, M-phase inducer phosphatase 2; test: Inhibition of recombinant N-terminal GST-tagged CDC25B (372 to 551 residues) (unknown origin) expressed in Escherichia coli BL21 (DE3) cells incubated for 45 mins
[17] = target: T2, M-phase inducer phosphatase 1; test: Inhibition of N-terminal FLAG-tagged wild type CDC25A (331 to 524 residues) (unknown origin) expressed in Escherichia coli BL21 (DE3) cells incubated for 45 mins

Structure (SMILES): O=C(O)c1ccc(NC2=C(Cl)C(=O)c3ccccc3C2=O)cc1
IC50 [2]: 5.41 µM
IC50 [3]: 3.19 µM
IC50 [4]: 11.1 µM

Structure (SMILES): O=C(O)C1CCCCC1c1c2ccc(=O)cc-2oc2cc(O)ccc12 (stereo not drawn)
IC50 [5]: 0.65 µM
IC50 [6]: 3.5 µM
IC50 [7]: 0.78 µM

Structure (SMILES): CCCc1cc(O)nc(SCC(=O)NCCSCc2ccco2)n1
IC50 (HeLa): 66.3 µM
IC50 [8]: 7.9 µM

Structure (SMILES): CCSC1=C(C)C(=O)c2ccccc2C1=O
IC50 [5]: 5.5 µM
IC50 [7]: 4.7 µM

Structure (SMILES): CC(C)=CCOc1ccc(C(=O)/C=C/c2ccc(Cl)cc2)c(O)c1
IC50 (HCT-116): 0.89 µM

Structure (SMILES): CCOC(=O)C1=C(C)N=c2s/c(=C\c3cc(Br)c(O)c(Br)c3)c(=O)n2C1c1ccc2c(c1)OCO2 (stereo not drawn)
IC50 [12]: 4.5 µM

Structure (SMILES): C[C@@H](C[C@@H](O)C(C)(C)C=O)[C@@H]1CC[C@]2(C)C3=CC[C@H]4C(C)(C)C(=O)CC[C@]4(C)[C@H]3CC[C@@]12C
IC50 [7]: 2.1 µM

Structure (SMILES): N#Cc1c(F)cc(O)cc1SCCS(=O)(=O)O
IC50 [16]: 1000 µM
IC50 [17]: 2200 µM

Structure (SMILES): CCOC(=O)C1=C(C)N=c2s/c(=C\c3ccc(-n4cc(CNC(=O)Nc5sccc5C(=O)O)nn4)cc3)c(=O)n2C1c1ccccc1 (stereo not drawn)
IC50 [7]: 3 µM

Structure (SMILES): Cc1nc2c(s1)C(=O)C=C(NCCN(C)C)C2=O
IC50 [13]: 0.053 µM
IC50 [14]: 0.023 µM
IC50 [15]: 0.023 µM

Structure (SMILES): CCCCCCCCCCCC/C=C/[C@]12C(=O)O[C@]3(C)O[C@]4(C)OC(=O)C(=C[C@H]1CCCCCCCCCCCC)C4C32 (single isomer, unassigned)
IC50 [7]: 6.44 µM

The remaining lines, values ahead:

IC50 [1]: 0.7 µM
Structure (SMILES): CCNC1=C(F)C(=O)c2c(F)c(F)c(F)c(F)c2C1=O

IC50 [1]: 0.8 µM
Structure (SMILES): O=C1C(F)=C(Nc2ccccc2)C(=O)c2c(F)c(F)c(F)c(F)c21

IC50 [9]: 0.9 µM
IC50 [10]: 9.1 µM
IC50 [11]: 4.3 µM
Structure (SMILES): COc1ccc2c(CSC3=CC(=O)c4ccccc4C3=O)cc(=O)oc2c1

IC50 [5]: 2.73 µM
IC50 [6]: 2.55 µM
Structure (SMILES): CC(C)n1c2c(=O)c(-c3ccc(F)cc3)cc(=O)c2c2c(=O)c3ccccc3c21

IC50 [5]: 2 µM
IC50 [6]: 2.51 µM
Structure (SMILES): Cc1cc(=O)c2c(c1=O)c1c(=O)c3ccccc3c1n2C(C)C

IC50 [4]: 39 µM
Structure (SMILES): CCOC(=O)c1ccc(N2C(=O)/C(=C\c3cccc(C)c3)SC2c2ccccc2)cc1 (stereo not drawn)

IC50 [13]: 0.053 µM
IC50 [14]: 0.023 µM
IC50 [15]: 0.023 µM
Structure (SMILES): CN(C)CCNC1=CC(=O)c2nc(-c3cc(F)ccc3F)oc2C1=O

IC50 [5]: 1.68 µM
IC50 [6]: 1.72 µM
Structure (SMILES): CC(C)n1c2c(=O)c(-c3ccco3)cc(=O)c2c2c(=O)c3ccccc3c21

IC50 [5]: 13.2 µM
IC50 [6]: 9 µM
IC50 [7]: 46.1 µM
Structure (SMILES): CCCCOc1cc2c(c3c(=O)oc4ccccc4c13)C(=O)C=CC2=O

IC50 [5]: 2.01 µM
IC50 [6]: 2 µM
Structure (SMILES): CC(C)n1c2c(=O)c(-c3ccccc3)cc(=O)c2c2c(=O)c3ccccc3c21

IC50 [2]: 5.72 µM
IC50 [3]: 2.6 µM
IC50 [4]: 6.99 µM
Structure (SMILES): COC1=CC(=O)C=C([S@@+]([O-])c2ccc(C)cc2)C1=O
